Reference: ChEMBL document CHEMBL5321275, “Discovery, Optimization, and Evaluation of Novel N-(Benzimidazol-5-yl)-1,3,4-thiadiazol-2-amine Analogues as Potent STAT3 Inhibitors for Cancer Treatment” (J Med Chem, 2023)
Converted amounts (≈) assume the structure as drawn. The source made the active and inactive calls. The rule behind the calls is not given here.

Assays:
[1] = tested on: HEK-Blue IL-6; experiment: Inhibition of IL-6/JAK/STAT3 signalling pathway in HEK-Blue IL-6 cells at 10 uM incubated for 16 hrs by QUANTI-blue assay relative to control; format: cell-based; conditions: Homo sapiens
[2] = Inhibition of IL-6/JAK/STAT3 signalling pathway in HEK-Blue IL-6 cells incubated for 16 hrs by QUANTI-blue assay; format: cell-based; conditions: Homo sapiens, HEK-Blue IL-6, 16 h
[3] = tested on: DU-145; experiment: Antiproliferative activity against human DU-145 cells assessed as inhibition of cell growth at 10 uM measured after 96 hrs by MTT assay relative to control; format: functional
[4] = tested on: DU-145; experiment: Antiproliferative activity against human DU-145 cells assessed as inhibition of cell growth measured after 96 hrs by MTT assay; format: functional, cell-based; conditions: DU-145, 96 h
[5] = tested on: MDA-MB-231; experiment: Antiproliferative activity against human MDA-MB-231 cells assessed as inhibition of cell growth at 10 uM measured after 96 hrs by MTT assay relative to control; format: functional
[6] = tested on: HepG2; experiment: Antiproliferative activity against human HepG2 cells assessed as inhibition of cell growth measured after 96 hrs by MTT assay; format: functional, cell-based; conditions: HepG2, 96 h
[7] = Antiproliferative activity against human PBMC cells assessed as inhibition of cell growth measured after 96 hrs by MTT assay; format: functional, cell-based
[8] = Metabolic stability in mouse liver microsomes assessed as intrinsic clearance in presence of NADPH/UDPGA; format: ADME, Microsome; conditions: read-out: CLH
[9] = biological target: T1, Signal transducer and activator of transcription 3 (Homo sapiens, UniProt P40763); experiment: Inhibition of STAT3 phosphorylation at Tyr705 residue in human DU-145 cells incubated for 24 hrs by Western blot analysis; format: cell-based; conditions: dose <= 10.0 µM
[10] = biological target: Tyrosine-protein kinase JAK2 (Homo sapiens) (UniProt O60674); experiment: Inhibition of JAK2 phosphorylation in human DU-145 cells at 10 uM measured after 24 hrs by Western blot analysis; format: cell-based
[11] = biological target: T1, Signal transducer and activator of transcription 3; experiment: Binding affinity to STAT3 (unknown origin) assessed as conformational change in STAT3 protein measured after 1 hr by circular dichroism method
[12] = biological target: T1, Signal transducer and activator of transcription 3; experiment: Inhibition of 5-carboxyfluorescein-GY(PO3H2)LPQTV-NH2 peptide probe binding to human STAT3 SH2 domain preincubated for 30 mins followed by probe addition and measured after 1 hr by fluorescence polarization assay
[13] = biological target: T1, Signal transducer and activator of transcription 3; experiment: Inhibition of STAT3 nuclear translocation in human DU-145 cells at 5 uM measured after 24 hrs by immunofluorescence assay; format: cell-based
[14] = biological target: T1, Signal transducer and activator of transcription 3; experiment: Inhibition of STAT3 in human DU-145 cells assessed as downregulation of c-myc expression at upto 10 uM measured after 24 hrs; format: cell-based
[15] = biological target: T1, Signal transducer and activator of transcription 3; experiment: Inhibition of STAT3 in human DU-145 cells assessed as downregulation of Bcl-2 expression at upto 10 uM measured after 24 hrs; format: cell-based
[16] = tested on: DU-145; experiment: Induction of cell cycle arrest in human DU-145 cells assessed as accumulation of cells at G0/G1 phase measured after 24 hrs by PI staining based flow cytometry analysis; format: functional; conditions: dose <= 10.0 µM
[17] = tested on: MDA-MB-231; experiment: Induction of cell cycle arrest in human MDA-MB-231 cells assessed as accumulation of cells at G0/G1 phase measured after 24 hrs by PI staining based flow cytometry analysis; format: functional; conditions: dose <= 10.0 µM
[18] = tested on: DU-145; experiment: Induction of apoptosis in human DU-145 cells assessed as late apoptotic cells at 5 uM measured after 48 hrs by annexin V-FITC and PI staining based flow cytometry analysis (reference value: 2.0%); format: functional
[19] = tested on: MDA-MB-231; experiment: Induction of apoptosis in human MDA-MB-231 cells assessed as cell apoptotic percentage at 10 uM measured after 48 hrs by annexin V-FITC and PI staining based flow cytometry analysis relative to control; format: functional
[20] = tested on: MDA-MB-231; experiment: Induction of apoptosis in human MDA-MB-231 cells assessed as induction of PARP cleavage at upto 10 uM measured after 48 hrs by […]; format: functional, cell-based
[21] = Toxicity in Balb/c mouse assessed as effect on body weight loss at 50 mg/kg, ip administered once daily for 16 days; format: organism-based; conditions: in vivo, 384 h, time 16 day
[22] = Toxicity in Balb/c mouse assessed as serious adverse effect at 50 mg/kg, ip administered once daily for 16 days; format: organism-based; conditions: in vivo, 384 h, time 16 day
[23] = Toxicity in Balb/c mouse assessed as effect on kidney at 50 mg/kg by hematoxylin and eosin staining based histopathological analysis; format: organism-based; conditions: in vivo
[24] = Toxicity in Balb/c mouse assessed as effect on spleen at 50 mg/kg by hematoxylin and eosin staining based histopathological analysis; format: organism-based; conditions: in vivo
[25] = Toxicity in Balb/c mouse assessed as effect on liver at 50 mg/kg by hematoxylin and eosin staining based histopathological analysis; format: organism-based; conditions: in vivo
[26] = Toxicity in Balb/c mouse assessed as effect on heart at 50 mg/kg by hematoxylin and eosin staining based histopathological analysis; format: organism-based; conditions: in vivo
[27] = tested on: DU-145; experiment: Antitumor activity against human DU-145 cells xenografted in Balb/c nude mouse model assessed as reduction in phosphorylated STAT3 at Y705 residue by immunoblotting analysis; format: functional, cell-based
[28] = Solubility of compound in water incubated for 10 mins; format: physicochemical
[29] = Drug concentration in ICR mouse plasma at 50 mg/kg, po measured after 2 to 8 hrs; format: ADME, organism-based; conditions: in vivo, time 2-8 hrs
[30] = Drug concentration in ICR mouse plasma at 5 mg/kg, iv measured at 2 mins; format: ADME, organism-based
[31] = AUC (0 to t) in ICR mouse at 50 mg/kg, po measured upto 96 hrs by HPLC-MS/MS analysis; format: ADME, organism-based; design: dose 50 mg/kg, time < 96 hrs, route po; conditions: in vivo
[32] = Half life in ICR mouse at 50 mg/kg, po measured upto 96 hrs by HPLC-MS/MS analysis; format: ADME, organism-based; conditions: in vivo
[33] = Volume of distribution at steady state in ICR mouse at 50 mg/kg, po measured upto 96 hrs by HPLC-MS/MS analysis; format: ADME, organism-based; conditions: in vivo
[34] = AUC (0 to t) in ICR mouse at 5 mg/kg, iv measured upto 96 hrs by HPLC-MS/MS analysis; format: ADME, organism-based; design: time < 96 hrs, dose 5 mg/kg, route iv; conditions: in vivo
[35] = MRT (0 to t) in ICR mouse at 5 mg/kg, iv measured upto 96 hrs by HPLC-MS/MS analysis; format: ADME, organism-based; conditions: in vivo
[36] = MRT (0 to infinity) in ICR mouse at 5 mg/kg, iv measured upto 96 hrs by HPLC-MS/MS analysis; format: ADME, organism-based; conditions: in vivo
[37] = Cmax in ICR mouse at 5 mg/kg, iv measured upto 96 hrs by HPLC-MS/MS analysis; format: ADME, organism-based; design: dose 5 mg/kg, time < 96 hrs, route iv; conditions: in vivo
[38] = Oral bioavailability in ICR mouse at 50 mg/kg measured upto 96 hrs by HPLC-MS/MS analysis; format: ADME, organism-based; conditions: in vivo

T1 sequence (P40763 whole entry): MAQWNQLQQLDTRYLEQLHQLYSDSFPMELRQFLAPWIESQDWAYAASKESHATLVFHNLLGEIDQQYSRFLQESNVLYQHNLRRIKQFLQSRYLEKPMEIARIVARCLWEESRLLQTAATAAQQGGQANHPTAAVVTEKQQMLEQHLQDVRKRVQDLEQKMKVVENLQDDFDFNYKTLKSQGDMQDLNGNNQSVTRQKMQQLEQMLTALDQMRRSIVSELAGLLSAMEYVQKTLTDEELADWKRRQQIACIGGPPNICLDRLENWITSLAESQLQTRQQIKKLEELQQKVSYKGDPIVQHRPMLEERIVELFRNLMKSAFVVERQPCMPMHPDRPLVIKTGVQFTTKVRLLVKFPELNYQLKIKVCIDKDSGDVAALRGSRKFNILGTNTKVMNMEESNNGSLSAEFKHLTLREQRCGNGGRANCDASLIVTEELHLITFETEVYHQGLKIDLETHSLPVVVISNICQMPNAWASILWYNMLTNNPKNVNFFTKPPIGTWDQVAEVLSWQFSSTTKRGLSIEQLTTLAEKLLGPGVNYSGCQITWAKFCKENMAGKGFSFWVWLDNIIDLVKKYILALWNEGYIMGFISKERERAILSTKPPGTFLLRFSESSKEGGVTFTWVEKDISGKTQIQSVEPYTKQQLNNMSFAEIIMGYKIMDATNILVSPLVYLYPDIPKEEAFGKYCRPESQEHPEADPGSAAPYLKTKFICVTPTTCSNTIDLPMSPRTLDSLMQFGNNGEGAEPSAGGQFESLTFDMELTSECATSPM
Chain of Tyrosine-protein kinase JAK2 (Homo sapiens) (O60674 whole entry): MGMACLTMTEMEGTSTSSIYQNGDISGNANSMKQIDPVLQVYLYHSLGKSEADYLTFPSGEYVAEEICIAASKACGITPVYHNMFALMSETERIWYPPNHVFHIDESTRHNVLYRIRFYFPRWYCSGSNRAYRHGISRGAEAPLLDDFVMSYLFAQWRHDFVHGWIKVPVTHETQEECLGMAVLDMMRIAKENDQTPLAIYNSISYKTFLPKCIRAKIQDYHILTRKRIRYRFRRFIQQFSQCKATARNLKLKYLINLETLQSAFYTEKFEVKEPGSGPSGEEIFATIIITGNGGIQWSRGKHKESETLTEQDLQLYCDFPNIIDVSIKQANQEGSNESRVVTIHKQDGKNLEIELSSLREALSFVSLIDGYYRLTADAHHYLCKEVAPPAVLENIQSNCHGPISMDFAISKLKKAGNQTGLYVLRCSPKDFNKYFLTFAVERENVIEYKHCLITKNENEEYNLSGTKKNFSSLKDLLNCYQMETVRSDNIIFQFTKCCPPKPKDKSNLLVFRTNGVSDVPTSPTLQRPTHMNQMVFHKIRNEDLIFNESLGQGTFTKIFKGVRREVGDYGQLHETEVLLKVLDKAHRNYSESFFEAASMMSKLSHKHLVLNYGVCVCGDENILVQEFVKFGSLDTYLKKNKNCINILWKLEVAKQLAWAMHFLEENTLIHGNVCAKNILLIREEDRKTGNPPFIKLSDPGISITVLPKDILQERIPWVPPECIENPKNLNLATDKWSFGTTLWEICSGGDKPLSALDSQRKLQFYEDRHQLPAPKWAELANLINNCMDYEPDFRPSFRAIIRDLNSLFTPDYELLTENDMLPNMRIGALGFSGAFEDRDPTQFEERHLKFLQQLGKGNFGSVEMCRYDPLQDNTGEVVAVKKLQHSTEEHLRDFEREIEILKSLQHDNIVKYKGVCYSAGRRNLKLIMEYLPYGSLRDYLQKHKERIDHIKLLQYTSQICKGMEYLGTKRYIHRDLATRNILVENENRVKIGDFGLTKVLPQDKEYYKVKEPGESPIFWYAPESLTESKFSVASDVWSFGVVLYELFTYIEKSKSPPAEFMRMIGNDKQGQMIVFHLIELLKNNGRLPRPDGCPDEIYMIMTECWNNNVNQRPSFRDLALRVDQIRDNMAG

IC50 [2]: 650 nM | IC50 [4]: 2970 nM | IC50 [6]: 1450 nM | microsomal CLint [8]: 3.68 µL/min/mg | inhibition [9]: Dose-Dependent Effect | inhibition [10]: inactive | Activity [11]: Active | IC50 [12]: 16000 nM | inhibition [13]: Active | inhibition [14]: Active | inhibition [15]: Active | solubility at 10 min [28]: 1.04 µg/mL (≈ 1.75 µM) | Cp [29]: 771 ng/mL | concentration at 2 min [30]: 549 ng/mL | AUC(0-t) at 96 h [31]: 17800 ng·h/mL | half-life [32]: 9.94 h | Vdss [33]: 40.17172 L/kg | AUC(0-t) at 96 h [34]: 3430 ng·h/mL | MRT last at 96 h [35]: 14.9 h | MRT inf [36]: 15.3 h | Cmax [37]: 667 ng/mL | bioavailability [38]: 52%
Structure (SMILES): CN1CCN(c2cc3c(cc2Nc2nnc(-c4ccc(C(F)(F)F)cc4)s2)nc(-c2ccc(F)cc2)n3C2CC2)CC1
inhibition [1]: 101% | inhibition at 10 µM [3]: 92.7% | inhibition at 10 µM [5]: 90.1% | IC50 [7]: 16300 nM | Activity [16]: Dose-Dependent Effect | Activity [17]: Dose-Dependent Effect | Activity [18]: 13.9% | Activity [19]: 79.3% | Activity [20]: Active | Activity [21]: Non-Toxic | Activity [22]: Non-Toxic | Activity [23]: Non-Toxic | Activity [24]: Non-Toxic | Activity [25]: Non-Toxic | Activity [26]: Non-Toxic | Activity [27]: Active
